Source: patent US20200283384A1, “ANTIBACTERIAL COMPOUNDS AND METHODS OF USE THEREOF” (Wayne State University, priority 2016, published 2020)
Converted amounts (≈) assume the structure as drawn. Where two headings read alike, the source gives them in different places.

Tested on: 24 strains of S. aureus (SA1-SA24)
Assay: Broth micro-dilution MIC against 24 strains of S. aureus
Format: cell-based
Details: for Effect against the panel of S. aureus strains: 24 strains SA1-SA24, broth micro-dilution; for MIC: Staphylococcus aureus, read-out: Compound MIC
Procedure: Compounds were tested for their anti-bacterial activity against 56 clinical isolates including 24 clinical isolates of methicillin resistant S. aureus (MRSA) and methicillin-susceptible S. aureus (MSSA), 8 strains of Enterococcus, 8 strains of Acinetobacter baumannii, 8 strains of Klebsiella pneumoniae, and 8 strains of Pseudomonas aeruginosa using a standard broth micro-dilution method as recommended by the Clinical and Laboratory Standard Institute (CLSI, M100, s23).
HN18 HN19, and HN34 were tested by a broth micro-dilution method to determine their minimal inhibitory concentration (MIC) against 24 strains of S. aureus (SA1-SA24) (Table 2). […]. Furthermore, the results for HN18 and HN34 were consistent across four repeated experiments. […]

## Cc1[nH]c2ccccc2c1C(c1ccc(F)c(F)c1)c1c(C)[nH]c2ccccc12 [HN34]
  Effect against the panel of S. aureus strains: effective
Isolate SA1, experiment I
  MIC: 1 µg/mL (≈ 2.59 µM)
Isolate SA1, experiment II
  MIC: 2 µg/mL (≈ 5.18 µM)
Isolate SA1, experiment III
  MIC: 1 µg/mL (≈ 2.59 µM)
Isolate SA1, experiment IV
  MIC: 1 µg/mL (≈ 2.59 µM)
Isolate SA2, experiment I
  MIC: 2 µg/mL (≈ 5.18 µM)
Isolate SA2, experiment II
  MIC: 2 µg/mL (≈ 5.18 µM)
Isolate SA2, experiment III
  MIC: 1 µg/mL (≈ 2.59 µM)
Isolate SA2, experiment IV
  MIC: 1 µg/mL (≈ 2.59 µM)
Isolate SA3, experiment I
  MIC: 2 µg/mL (≈ 5.18 µM)
Isolate SA3, experiment II
  MIC: 2 µg/mL (≈ 5.18 µM)
Isolate SA3, experiment III
  MIC: 2 µg/mL (≈ 5.18 µM)
Isolate SA3, experiment IV
  MIC: 2 µg/mL (≈ 5.18 µM)
Isolate SA4, experiment I
  MIC: 2 µg/mL (≈ 5.18 µM)
Isolate SA4, experiment II
  MIC: 2 µg/mL (≈ 5.18 µM)
Isolate SA4, experiment III
  MIC: 2 µg/mL (≈ 5.18 µM)
Isolate SA5, experiment I
  MIC: 1 µg/mL (≈ 2.59 µM)
Isolate SA5, experiment II
  MIC: 2 µg/mL (≈ 5.18 µM)
Isolate SA5, experiment III
  MIC: 1 µg/mL (≈ 2.59 µM)
Isolate SA5, experiment IV
  MIC: 2 µg/mL (≈ 5.18 µM)
Isolate SA6, experiment I
  MIC: 1 µg/mL (≈ 2.59 µM)
Isolate SA6, experiment II
  MIC: 1 µg/mL (≈ 2.59 µM)
Isolate SA6, experiment III
  MIC: 1 µg/mL (≈ 2.59 µM)
Isolate SA6, experiment IV
  MIC: 1 µg/mL (≈ 2.59 µM)
Isolate SA7, experiment I
  MIC: 1 µg/mL (≈ 2.59 µM)
Isolate SA7, experiment II
  MIC: 1 µg/mL (≈ 2.59 µM)
Isolate SA7, experiment III
  MIC: 1 µg/mL (≈ 2.59 µM)
Isolate SA7, experiment IV
  MIC: 1 µg/mL (≈ 2.59 µM)
Isolate SA8, experiment I
  MIC: 2 µg/mL (≈ 5.18 µM)
Isolate SA8, experiment II
  MIC: 2 µg/mL (≈ 5.18 µM)
Isolate SA8, experiment III
  MIC: 2 µg/mL (≈ 5.18 µM)
Isolate SA8, experiment IV
  MIC: 2 µg/mL (≈ 5.18 µM)
Isolate SA9, experiment I
  MIC: 0.5 µg/mL (≈ 1.29 µM)
Isolate SA10, experiment I
  MIC: 1 µg/mL (≈ 2.59 µM)
Isolate SA11, experiment I
  MIC: 1 µg/mL (≈ 2.59 µM)
Isolate SA12, experiment I
  MIC: 1 µg/mL (≈ 2.59 µM)
Isolate SA13, experiment I
  MIC: 1 µg/mL (≈ 2.59 µM)
Isolate SA14, experiment I
  MIC: 0.25 µg/mL (≈ 0.647 µM)
Isolate SA15, experiment I
  MIC: 1 µg/mL (≈ 2.59 µM)
Isolate SA16, experiment I
  MIC: 1 µg/mL (≈ 2.59 µM)
Isolate SA17, experiment I
  MIC: 1 µg/mL (≈ 2.59 µM)
Isolate SA18, experiment I
  MIC: 1 µg/mL (≈ 2.59 µM)
Isolate SA19, experiment I
  MIC: 1 µg/mL (≈ 2.59 µM)
Isolate SA20, experiment I
  MIC: 2 µg/mL (≈ 5.18 µM)
Isolate SA21, experiment I
  MIC: 1 µg/mL (≈ 2.59 µM)
Isolate SA22, experiment I
  MIC: 1 µg/mL (≈ 2.59 µM)
Isolate SA23, experiment I
  MIC: 1 µg/mL (≈ 2.59 µM)
Isolate SA24, experiment I
  MIC: 1 µg/mL (≈ 2.59 µM)

## Fc1ccc(C(C2=CNC3C=CC=CC23)C2=C3C=CC=CC3NC2)cc1F (centres unmarked) [HN18, 3-((3,4-difluorophenyl)(2,7a-dihydro-1H-indol-3-yl)methyl)-3a,7a-dihydro-1H-indole]
  Effect against the panel of S. aureus strains: effective
Isolate SA1, experiment I
  MIC: 0.5 µg/mL (≈ 1.38 µM)
Isolate SA1, experiment II
  MIC: 1 µg/mL (≈ 2.76 µM)
Isolate SA1, experiment III
  MIC: 1 µg/mL (≈ 2.76 µM)
Isolate SA1, experiment IV
  MIC: 1 µg/mL (≈ 2.76 µM)
Isolate SA2, experiment I
  MIC: 1 µg/mL (≈ 2.76 µM)
Isolate SA2, experiment II
  MIC: 2 µg/mL (≈ 5.52 µM)
Isolate SA2, experiment III
  MIC: 2 µg/mL (≈ 5.52 µM)
Isolate SA2, experiment IV
  MIC: 2 µg/mL (≈ 5.52 µM)
Isolate SA3, experiment I
  MIC: 1 µg/mL (≈ 2.76 µM)
Isolate SA3, experiment II
  MIC: 2 µg/mL (≈ 5.52 µM)
Isolate SA3, experiment III
  MIC: 2 µg/mL (≈ 5.52 µM)
Isolate SA3, experiment IV
  MIC: 2 µg/mL (≈ 5.52 µM)
Isolate SA4, experiment I
  MIC: 1 µg/mL (≈ 2.76 µM)
Isolate SA4, experiment II
  MIC: 2 µg/mL (≈ 5.52 µM)
Isolate SA4, experiment III
  MIC: 1 µg/mL (≈ 2.76 µM)
Isolate SA4, experiment IV
  MIC: 2 µg/mL (≈ 5.52 µM)
Isolate SA5, experiment I
  MIC: 1 µg/mL (≈ 2.76 µM)
Isolate SA5, experiment II
  MIC: 1 µg/mL (≈ 2.76 µM)
Isolate SA5, experiment III
  MIC: 1 µg/mL (≈ 2.76 µM)
Isolate SA5, experiment IV
  MIC: 2 µg/mL (≈ 5.52 µM)
Isolate SA6, experiment I
  MIC: 1 µg/mL (≈ 2.76 µM)
Isolate SA6, experiment II
  MIC: 2 µg/mL (≈ 5.52 µM)
Isolate SA6, experiment III
  MIC: 2 µg/mL (≈ 5.52 µM)
Isolate SA6, experiment IV
  MIC: 2 µg/mL (≈ 5.52 µM)
Isolate SA7, experiment I
  MIC: 0.5 µg/mL (≈ 1.38 µM)
Isolate SA7, experiment II
  MIC: 1 µg/mL (≈ 2.76 µM)
Isolate SA7, experiment III
  MIC: 1 µg/mL (≈ 2.76 µM)
Isolate SA7, experiment IV
  MIC: 1 µg/mL (≈ 2.76 µM)
Isolate SA8, experiment I
  MIC: 1 µg/mL (≈ 2.76 µM)
Isolate SA8, experiment II
  MIC: 2 µg/mL (≈ 5.52 µM)
Isolate SA8, experiment III
  MIC: 2 µg/mL (≈ 5.52 µM)
Isolate SA8, experiment IV
  MIC: 2 µg/mL (≈ 5.52 µM)
Isolate SA9, experiment I
  MIC: 2 µg/mL (≈ 5.52 µM)
Isolate SA9, experiment II
  MIC: 2 µg/mL (≈ 5.52 µM)
Isolate SA10, experiment I
  MIC: 2 µg/mL (≈ 5.52 µM)
Isolate SA10, experiment II
  MIC: 2 µg/mL (≈ 5.52 µM)
Isolate SA11, experiment I
  MIC: 2 µg/mL (≈ 5.52 µM)
Isolate SA11, experiment II
  MIC: 2 µg/mL (≈ 5.52 µM)
Isolate SA12, experiment I
  MIC: 2 µg/mL (≈ 5.52 µM)
Isolate SA12, experiment II
  MIC: 2 µg/mL (≈ 5.52 µM)
Isolate SA13, experiment I
  MIC: 2 µg/mL (≈ 5.52 µM)
Isolate SA13, experiment II
  MIC: 2 µg/mL (≈ 5.52 µM)
Isolate SA14, experiment I
  MIC: 0.5 µg/mL (≈ 1.38 µM)
Isolate SA14, experiment II
  MIC: 0.5 µg/mL (≈ 1.38 µM)
Isolate SA15, experiment I
  MIC: 2 µg/mL (≈ 5.52 µM)
Isolate SA15, experiment II
  MIC: 2 µg/mL (≈ 5.52 µM)
Isolate SA16, experiment I
  MIC: 1 µg/mL (≈ 2.76 µM)
Isolate SA16, experiment II
  MIC: 2 µg/mL (≈ 5.52 µM)
Isolate SA17, experiment I
  MIC: 2 µg/mL (≈ 5.52 µM)
Isolate SA17, experiment II
  MIC: 2 µg/mL (≈ 5.52 µM)
Isolate SA18, experiment I
  MIC: 2 µg/mL (≈ 5.52 µM)
Isolate SA18, experiment II
  MIC: 2 µg/mL (≈ 5.52 µM)
Isolate SA19, experiment I
  MIC: 2 µg/mL (≈ 5.52 µM)
Isolate SA19, experiment II
  MIC: 2 µg/mL (≈ 5.52 µM)
Isolate SA20, experiment I
  MIC: 2 µg/mL (≈ 5.52 µM)
Isolate SA20, experiment II
  MIC: 2 µg/mL (≈ 5.52 µM)
Isolate SA21, experiment I
  MIC: 2 µg/mL (≈ 5.52 µM)
Isolate SA21, experiment II
  MIC: 2 µg/mL (≈ 5.52 µM)
Isolate SA22, experiment I
  MIC: 2 µg/mL (≈ 5.52 µM)
Isolate SA22, experiment II
  MIC: 2 µg/mL (≈ 5.52 µM)
Isolate SA23, experiment I
  MIC: 2 µg/mL (≈ 5.52 µM)
Isolate SA23, experiment II
  MIC: 2 µg/mL (≈ 5.52 µM)
Isolate SA24, experiment I
  MIC: 2 µg/mL (≈ 5.52 µM)
Isolate SA24, experiment II
  MIC: 2 µg/mL (≈ 5.52 µM)
